Earlier results on three substances are cited in US12357678B2, “Cancer stem cell targeted cancer vaccines” (priority 2012, dated 2025).

One data set relates to HLA-A2. To be noted: mutant vs wild type IL-13Rα2345-353.
Another data set has as its system T cells. As to conditions: mutant vs wild type IL-13Rα2345-353.
The subject of data set [1] is IL-13Ra2 positive, HLA-A2 positive glioma cells.

Consider “ALPFGFILV (Amino acid residues 345-353 of IL-13 Receptor alpha mutation of W to A at position 345 and I to V at position 353) [IL-13Rα2345-353:1A9V, IL-13Rα2 345-353 with mutation of W to A at position 345 and I to V at position 353]”, for which the “affinity for HLA-A2 relative to wild type peptide” value with HLA-A2 is on record as “increased the affinity for HLA-A2”. In addition, the “T cell response (immunogenicity) relative to wild type peptide” value in the data set on T cells is on record as “more robust T cell response”. For the same substance, the “killing of glioma cells by T cells stimulated with the peptide, relative to wild type” value in data set [1] (T cells stimulated with mutant vs wild type peptide) is recorded as “more effective at killing glioma cells”.

“ELMLG EFLKL (ELMLGEFLKL; Amino acid residues 95-104 of Survivin with a methionine substitution at position 3) [SEQ ID NO:9, Survivin 95-104 with a methionine substitution at position 3]”: in the data set on cancer cells, the “activation of T cells cytotoxic to cancer cells” value is on record as “able to activate T cells that were cytotoxic to cancer cells” and the “immunogenicity of survivin analog peptide” value is listed as “immunogenic”.

On to “WLPFGFILI (Amino acid residues 345-353 of IL-13 Receptor alpha; listed as Homo sapiens) [IL-13Rα2345-353, Amino acid residues 345-353 of Interleukin-13 Receptor alpha]”, for which the “lysis of glioma cells by CTL lines generated by stimulation of CD8+ cells with the peptide” value in data set [1] (IL-13Ra2 positive, HLA-A2 positive glioma cells, antigen-specific) is recorded as “efficiently lysed”.
